Paper PMC11673078, “DT-13 Mediates Ligand-Dependent Activation of PPARγ Response Elements In Vitro” (Biology, 2024)

Molecular target: T1, PPARγ (Homo sapiens, UniProt P37231)
T1 construct: gene PPARG
T1 sequence (P37231 231-505 limits assumed): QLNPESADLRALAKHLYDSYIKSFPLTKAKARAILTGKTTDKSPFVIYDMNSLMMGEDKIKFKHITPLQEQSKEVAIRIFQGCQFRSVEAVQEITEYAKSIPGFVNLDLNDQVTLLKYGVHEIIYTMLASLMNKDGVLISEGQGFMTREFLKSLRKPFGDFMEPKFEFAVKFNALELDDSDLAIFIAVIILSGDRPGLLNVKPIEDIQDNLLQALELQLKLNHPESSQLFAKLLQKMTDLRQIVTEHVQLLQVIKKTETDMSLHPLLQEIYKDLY
Assay: fluorescence polarization competitive binding assay (PolarScreen PPARγ Green)

Row | SMILES | IC50 [nM]
1 | CCCCC/C=C\C=C\C(O)CCCCCCCC(=O)O (centres unmarked) [9-hydroxyoctadecadienoic acid] | 1800
2 | O=C(Nc1ccccc1)c1cc([N+](=O)[O-])ccc1Cl [GW9662] | 22.3
